From patent US8518952B2, “6 substituted 2-heterocyclylamino pyrazine compounds as CHK-1 inhibitors” (Pfizer Inc., priority 2008, dated 2013)
Where a name gives a salt, the structure may show the parent alone. Read-outs that look alike come from different tables or passages of the source.

Experiments:
CHK1 (kinase domain) = molecular target: T1, CHK1 (kinase domain) (Homo sapiens, UniProt O14757); assay: CHK1 Ki determination, spectrophotometric coupled (pyruvate kinase/lactate dehydrogenase) assay; assay type: biochemical; conditions: CHK-1 kinase domain; for Ki: 150 uM ATP, 125 uM Syntide 2; for percent inhibition (where no Ki data is available): inhibitor concentration not given
T1 construct: a solution containing 1 nM of CHK1 (kinase domain)
T1 sequence (O14757 9-265 limits assumed): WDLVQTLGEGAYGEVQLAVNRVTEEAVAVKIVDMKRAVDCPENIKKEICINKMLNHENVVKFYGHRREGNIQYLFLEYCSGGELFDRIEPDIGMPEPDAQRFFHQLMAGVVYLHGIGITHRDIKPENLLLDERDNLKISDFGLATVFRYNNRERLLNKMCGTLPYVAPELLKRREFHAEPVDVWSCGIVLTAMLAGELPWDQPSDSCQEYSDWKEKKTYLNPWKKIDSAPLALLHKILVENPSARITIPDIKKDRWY
Experimental: After 15 min pre-incubation, the enzymatic reaction was initiated by the simultaneous addition of Syntide 2 peptide (125 uM, final concentration) and ATP (150 uM, final concentration). The kinase-catalyzed production of ADP from ATP that accompanied phosphoryl transfer to the substrate Syntide 2 was coupled to the oxidation of NADH through the activities of pyruvate kinase and lactate dehydrogenase. NADH conversion to NAD^+ was monitored by the decrease in absorbance at 340 nm (ε=6.22 cm^−1 mM^−1) using a microplate reader from Molecular Devices Spectormax Plus (Sunnyvale, Calif.) or BMG LABTECH Inc (Offenburg, Germany).
The inhibition of CHK1 was analyzed by fitting the data to the following equation to determine Kiapp:
[formula] where [E]o and [I]o are the active enzyme and inhibitor concentration, respectively; Ki is the inhibition binding constant and Km the Michaelis-Menten constant for ATP; Vi and Vo are the rates of substrate oxidation in the presence of and in the absence of inhibitor, respectively. EC50 Determination (Cellular Assay)
(§1) Under the “Ki” column, data entries in the format of “%” are percent inhibition data where no Ki data is available. Data entry under the “EC50” column with an * are data obtained using Mia Paca-2 cells rather than HeLa cells. Data is not available where noted as n/a.

HeLa cells = assay: Histone H3 (Ser10) phosphorylation ELISA, abrogation of camptothecin-induced G2 arrest (CHK-1 cellular assay); assay type: cell-based
Experimental: The Histone H3 phosphorylation ELISA assay detects cells entering mitosis and represents the primary in vitro cell-based assay used to measure the cellular potency of compounds in abrogating the G2 check point induced by DNA damage in HeLa cells or MiaPaCa cells. The candidate substances were assayed for potency in their ability to inhibit camptothecin-induced G2 arrest, as measured by an increase in Histone H3 phosphorylation on Ser10, a marker of entry into mitosis.
Tissue culture plates were seeded with HeLa cells or MiaPaCa Cells and allowed to attach overnight. The cells were then treated with camptothecin to induce DNA damage for 8 hrs. Candidate substances or diluent were then added in the presence of nocodozole for 16 hours. […] The fresh whole cell lysates were then thawed and added to the ELISA plate with shaking for 3 hours. Between all subsequent steps plates were washed 4 times with PBST. Biotinylated phospho Histone H3 (ser10) detection antibody was added for 1 hour, followed by addition of horseradish peroxidase-linked streptavidin secondary antibody for 1 hour. Color development of the antibody was performed with addition of TMB substrate and incubation for 2 minutes on a plate shaker. […] EC50 values were calculated by sigmoid curve fitting using a four-parameter analysis.
as §1

[1] = Homo sapiens, HeLa, HeLa cells, camptothecin 8 hrs, then compound with nocodozole 16 hours, read-out: EC50
[2] = HeLa cells, camptothecin 8 hrs, then compound with nocodozole 16 hours, read-out: EC50

Compound | Ki (CHK1 (kinase domain)) [nM] | EC50 (HeLa cells; [1]) [nM] | also measured
Fc1ccc2ncc(-c3cncc(N[C@@H]4C[C@@H]5CN[C@H]4C5)n3)n2c1 [Example 126, (1S,4R,6R)-N-[6-(6-fluoroimidazo[1,2-a]pyridin-3-yl)pyrazin-2-yl]-2-azabicyclo[2.2.1]heptan-6-amine] | 5.88 | 140 | 
C[C@@H]1CC[C@@H](Nc2cncc(-n3cnc4cc(OCC5(C)COC5)ccc43)n2)CN1 [Example 9, 6-{5-[(3-Methyloxetan-3-yl)methoxy]-1H-benzimidazol-1-yl}-N-[(3R,6R)-6-methylpiperidin-3-yl]pyrazin-2-amine] | 131 | ≥ 10000 | 
c1cnc2c(-c3cncc(N[C@@H]4CCCNC4)n3)cnn2c1 [Example 23, N-[(3R)-piperidin-3-yl]-6-pyrazolo[1,5-a]pyrimidin-3-ylpyrazin-2-amine] |  |  | percent inhibition (where no Ki data is available) (CHK1 (kinase domain)): 36.1%^; EC50 (HeLa cells; Homo sapiens, HeLa cells, camptothecin 8 hrs, then compound with nocodozole 16 hours, read-out: EC50): ≥ 10000 nM
COC[C@@H]1C[C@@H](Nc2cncc(-c3cnc4ccc(Cl)cn34)n2)CN1 [Example 246, 6-(6-chloroimidazo[1,2-a]pyridin-3-yl)-N-[(3R,5S)-5-(methoxymethyl)pyrrolidin-3-yl]pyrazin-2-amine] | 35.3 | 229 | 
CCc1cn2c(-c3cncc(N[C@H]4CNC[C@H]4CF)n3)cnc2s1 [Example 185, 6-(2-ethylimidazo[2,1-b][1,3]thiazol-5-yl)-N-[(3R,4R)-4-(fluoromethyl)pyrrolidin-3-yl]pyrazin-2-amine] | 5.4 | 66.4 | 
C[C@@H]1NCCC[C@H]1Nc1cncc(-c2cnc3ccccn23)n1 [Example 101, 6-imidazo[1,2-a]pyridin-3-yl-N-[(2S,3R)-2-methylpiperidin-3-yl]pyrazin-2-amine] | 55.4 | ≥ 10000 | 
C[C@@H]1CC[C@@H](Nc2cncc(-c3cnc4cnccn34)n2)CN1 [Example 146, 6-imidazo[1,2-a]pyrazin-3-yl-N-[(3R,6R)-6-methylpiperidin-3-yl]pyrazin-2-amine] | 19 | 493 | 
c1ccn2c(-c3cncc(N[C@@H]4CCNC4)n3)cnc2c1 [Example 10, 6-Imidazo[1,2-a]pyridin-3-yl-N-[(3R)-pyrrolidin-3-yl]pyrazin-2-amine] | 23.6 | 244 | 
COc1ccn2c(-c3cncc(N[C@H]4CNC[C@H]4c4ccccc4)n3)cnc2c1 [Example 152, 6-(7-methoxyimidazo[1,2-a]pyridin-3-yl)-N-[(3R,4R)-4-phenylpyrrolidin-3-yl]pyrazin-2-amine] | 1.47 | 5.6 | 
FC(F)[C@@H]1C[C@@H](Nc2cncc(-c3cnc4ccccn34)n2)CN1 [Example 25, N-[(3R,5S)-5-(difluoromethyl)pyrrolidin-3-yl]-6-(imidazo[1,2-a]pyridin-3-yl)pyrazin-2-amine] | 70.2 | ≥ 10000 | 
FC(F)[C@@H]1C[C@@H](Nc2cncc(-c3cnn4cc(Cl)ccc34)n2)CN1 [Example 100, 6-(6-chloropyrazolo[1,5-a]pyridin-3-yl)-N-[(3R,5S)-5-(difluoromethyl)pyrrolidin-3-yl]pyrazin-2-amine] | 14.6 | 3530 | 
CC(C)c1ccc2ncc(-c3cncc(N[C@@H]4CCCNC4)n3)n2c1 [Example 43, 6-(6-Isopropylimidazo[1,2-a]pyridin-3-yl)-N-[(3R)-piperidin-3-yl]pyrazin-2-amine] | 6.69 | 64.6 | 
c1cn2c(-c3cncc(N[C@@H]4C[C@@H]5CN[C@H]4C5)n3)cnc2cn1 [Example 147, (1S,4R,6R)-N-(6-imidazo[1,2-a]pyrazin-3-ylpyrazin-2-yl)-2-azabicyclo[2.2.1]heptan-6-amine] | 12.9 | 295 | 
CC(C)c1cn2c(-c3cncc(N[C@@H]4CCCN[C@H]4C)n3)cnc2s1 [Example 112, 6-(2-isopropylimidazo[2,1-b][1,3]thiazol-5-yl)-N-[(2S,3R)-2-methylpiperidin-3-yl]pyrazin-2-amine] | 12.7 | 1110 | 
c1ccc2c(c1)ncn2-c1cncc(N[C@@H]2CCCNC2)n1 [Example 1, 6-(1H-benzimidazol-1-yl)-N-[(3R)-piperidin-3-yl]pyrazin-2-amine] | 13.2 |  | EC50 (HeLa cells; Homo sapiens, HeLa): 70.3 nM
Cc1ccc2ncc(-c3cncc(N[C@@H]4CCNC4)n3)n2c1 [Example 50, 6-(6-Methylimidazo[1,2-a]pyridin-3-yl)-N-[(3R)-pyrrolidin-3-yl]pyrazin-2-amine] | 17.4 | 148 | 
c1cc2c(cc1OCC1CC1)ncn2-c1cncc(N[C@@H]2CCNC2)n1 [Example 221, 6-[5-(cyclopropylmethoxy)-1H-benzimidazol-1-yl]-N-[(3R)-pyrrolidin-3-yl]pyrazin-2-amine] | 3.34 | 370 | 
OC[C@@H]1CNC[C@@H]1Nc1cncc(-c2cnn3cc(Cl)ccc23)n1 [Example 201, [(3R,4R)-4-{[6-(6-chloropyrazolo[1,5-a]pyridin-3-yl)pyrazin-2-yl]amino}pyrrolidin-3-yl]methanol] | 4.88 | 48.9 | 
CC(C)Oc1ccc2c(c1)ncn2-c1cncc(N[C@@H]2CCNC2)n1 [Example 222, 6-[5-(propan-2-yloxy)-1H-benzimidazol-1-yl]-N-[(3R)-pyrrolidin-3-yl]pyrazin-2-amine] |  | ≥ 10000 | percent inhibition (where no Ki data is available) (CHK1 (kinase domain)): 42.5%^
Fc1ccc2c(-c3cncc(N[C@@H]4CCCNC4)n3)cnn2c1 [Example 198, 6-(6-fluoropyrazolo[1,5-a]pyridin-3-yl)-N-[(3R)-piperidin-3-yl]pyrazin-2-amine] | 1.09 | 23.4 | 
C[C@@H]1NCCC[C@H]1Nc1cncc(-c2cnc3cc(Cl)ccn23)n1 [Example 104, 6-(7-chloroimidazo[1,2-a]pyridin-3-yl)-N-[(2S,3R)-2-methylpiperidin-3-yl]pyrazin-2-amine] | 36.4 | ≥ 10000 | 
Cc1cn2c(-c3cncc(N[C@@H]4C[C@@H]5CN[C@H]4C5)n3)cnc2s1 [Example 125, (1S,4R,6R)-N-[6-(2-methylimidazo[2,1-b][1,3]thiazol-5-yl)pyrazin-2-yl]-2-azabicyclo[2.2.1]heptan-6-amine] |  |  | EC50 (HeLa cells; [2]): 35 nM
Cc1cn2c(-c3cncc(N[C@@H]4C[C@@H]5CN[C@H]4C5)n3)cnc2s1 [Example 85, (1S,4R,6R)-2-Aza-bicyclo[2.2.1]hept-6-yl-[6-(2-methyl-imidazo[2,1-b]thiazol-5-yl)-pyrazin-2-yl]-amine] |  |  | EC50 (HeLa cells; [2]): 795 nM
C[C@H]1NCCC[C@H]1Nc1cncc(-c2cnc3ccccn23)n1 [Example 138, 6-imidazo[1,2-a]pyridin-3-yl-N-[(2R,3R)-2-methylpiperidin-3-yl]pyrazin-2-amine] |  |  | EC50 (HeLa cells; [2]): 188 nM
Cc1ncc(-c2cncc(N[C@@H]3CC[C@H](C)NC3)n2)n1C [Example 70, 6-(1,2-dimethyl-1H-imidazol-5-yl)-N-[(3R,6S)-6-methylpiperidin-3-yl]pyrazin-2-amine] |  |  | percent inhibition (where no Ki data is available) (CHK1 (kinase domain)): 0%
Cc1ncc(-c2cncc(NC3CCCCNC3)n2)n1Cc1ccccc1 (centres unmarked) [Example 74, N-[6-(1-benzyl-2-methyl-1H-imidazol-5-yl)pyrazin-2-yl]azepan-3-amine] |  |  | percent inhibition (where no Ki data is available) (CHK1 (kinase domain)): 5.8%^
N#Cc1ccc2ncc(-c3cncc(N[C@H]4CNC[C@H]4C4CC4)n3)n2c1 [Example 263, 3-(6-{[(3R,4R)-4-cyclopropylpyrrolidin-3-yl]amino}pyrazin-2-yl)imidazo[1,2-a]pyridine-6-carbonitrile] | 374 |  | 
C[C@@H]1CC[C@@H](Nc2cncc(-c3cnc4cccnn34)n2)CN1 [Example 84, 6-imidazo[1,2-b]pyridazin-3-yl-N-[(3R,6R)-6-methylpiperidin-3-yl]pyrazin-2-amine, acetate salt] | 1000 |  | 
F[C@@H]1CNC[C@@H]1Nc1cncc(-c2cnn3ccccc23)n1 (relative stereo) [Example 45, Cis N-[4-fluoropyrrolidin-3-yl]-6-pyrazolo [1,5-a]pyridin-3-ylpyrazin-2-amine] | 585 |  | 
